In US12636268B2, “CXCL8 inhibitors for use in the treatment of COVID-19” (Dompe' Farmaceutici SPA, priority 2020, dated 2026):

System: COVID-19 patients with severe pneumonia
Assay: Phase 2 clinical study of Reparixin plus standard of care in COVID-19 patients with severe pneumonia
Assay type: in vivo, human
Details: for Composite endpoint, first occurrence (% patients) / Composite endpoint, first occurrence (n patients): oral tablets 1200 mg TID plus standard of care
Text: A phase 2 clinical study has been conducted to assess efficacy and safety of Reparixin in COVID-19 patients with severe pneumonia.
The patients participating to the trial satisfied the following inclusion criteria: • a) at least one of the following: • respiratory distress, RR≥30 breaths/min without oxygen; • Partial arterial oxygen pressure (PaO2)/Fraction of inspiration O2 (FiO2)>100<300 mmHg (1 mmHg=0.133 kPa). • b) chest imaging confirming lung involvement and inflammation. • c) inflammatory status as documented by at least one of the following: Lactate dehydrogenase (LDH)>normal range, C-reactive protein (CRP)≥100 mg/L or IL-6≥40 pg/mL, serum ferritin ≥900 ng/mL, XDP >20 mcg/mL.
Fourteen patients received the standard of care treatment only (Control group).
Thirty-two patients received Reparixin oral tablets 1200 mg TID in addition to the standard of care treatment (Reparixin group) for a maximum of 21 days.
In both groups, where necessary due to the presence of concomitant pathologies (diabetes, hypertension, cancer etc. . . ), the patients also continued to receive specific treatments for these.
The first occurrence of the composite primary endpoint (at least one of the following events: death, supplemental oxygen requirement, invasive mechanical ventilation use, admission to ICU, and use of a rescue medication for any reason) was evaluated in all the patients and the data obtained are shown in Table 2 below.
The data collected in the clinical trial were analyzed by means of the Kaplan-Meier methodology and the log-rank test was used to test for differences between treatment groups. The Kaplan-Meier method is a well-established method to analyse the patterns of events over time to estimate the probability of being free of event. The form of the estimated “survival curves” is a step function, with steps down occurring at those time points where there are events. As patients have events or are censored (patients who exit the analyses for other reasons than events) the number of patients remaining evaluable in the trial in each of the treatment groups is diminishing. The probabilities of being free of event are, as a consequence, estimated from fewer and fewer patients as time progresses. To give information in relation to this, the number of patients at risk at various time points are provided: these are the numbers of patients still at risk of having their first occurrence of the composite endpoint.

[1] = Reparixin plus standard of care vs standard of care only

CC(C)Cc1ccc([C@@H](C)C(=O)NS(C)(=O)=O)cc1 [Reparixin, R-(-)-2-(4-isobutylphenyl)propionyl methansulfonamide]
Composite endpoint, first occurrence (% patients) (Day 1, 32 evaluable patients): 9.4%
Composite endpoint, first occurrence (n patients) (Day 1, 32 evaluable patients, composite = death, supplemental oxygen requirement, invasive mechanical ventilation use, admission to ICU, or rescue medication): 3
Composite endpoint, first occurrence (% patients) (Day 2, 27 evaluable patients): 7.4%
Composite endpoint, first occurrence (n patients) (Day 2, 27 evaluable patients): 2
Time of recovery of patients (Reparixin group compared to the Control group): significantly reduced
Freedom from composite event over time (Kaplan-Meier, FIG. 1) (Reparixin group vs Control group (standard of care only), log-rank test p-value 0.0031): statistically significant higher freedom from event
Progression to more severe respiratory disease (Reparixin group vs Control group, shown by incidence of the composite endpoints): prevents the progression to more severe respiratory disease
Days of oxygen use [1]: fewer days of oxygen use
Duration of mechanical ventilation [1]: shorter subsequent duration of mechanical ventilation
Respiratory function (patients in the Reparixin group): improved respiratory function
